From PMC5341405, “Lapachol, a compound targeting pyrimidine metabolism, ameliorates experimental autoimmune arthritis” (Arthritis Research & Therapy, 2017)

Assays:
murine CD4 T cells = assay: Proliferation assay of murine CD4 T cells (dye dilution, flow cytometry); type: cell-based, C57BL/6 mice
Description: (§1) Human CD4 T cells were purified from the whole blood of healthy volunteers. Briefly, peripheral blood mononuclear cells (PBMCs) were isolated by Percoll gradient (Sigma-Aldrich, St. Louis, MO, USA). CD4 T cells were isolated from PBMCs using Isolation Kit (Miltenyi Biotec, Bergisch Gladbach, Germany). For murine CD4 T cells, lymph nodes from naive C57BL/6 male mice were harvested, and CD4 T cells were purified using Isolation Kit (Miltenyi Biotec, Bergisch Gladbach, Germany) according to the manufacturer’s recommendations.
(§2) A total of 1 × 10^5 CD4 T cells were labeled with 1 μM Dye Efluor® 670 (eBioscience, San Diego, CA, USA) for 15 min at 37 °C and cultured in RPMI-1640 10% FBS for 4 days in a 96-well U-bottom plate (Falcon, Franklin Lakes, New Jersey, USA) with the LAP salt diluted in RPMI-1640 (10, 30, and 100 μM), LEF diluted in RPMI-1640 (10, 30, and 100 μM; Arava®, Sanofi, France) and/or uridine (30, 100, and 300 μM; Sigma-Aldrich, St. Louis, MO, USA) in the presence of anti-CD3 (3 μg/ml) and anti-CD28 (1.5 μg/ml). The proliferation of CD4 T cells was determined by dye dilution in flow cytometry analysis. The results were expressed as the percentage of suppression using the following formula: [proliferation of CD4 T cells only – (proliferation of T CD4 cells with LEF or LAP)/proliferation of CD4 T cells only] × 100.

human CD4 T cells = assay: Proliferation assay of human CD4 T cells (dye dilution, flow cytometry); type: cell-based
Description: as §1, §2

[1] = system: antigen-induced arthritis (AIA) in C57BL/6 mice; assay: Antigen-induced arthritis (AIA); type: in vivo
[2] = 10, 30, and 100 μM, 4 days, anti-CD3/CD28
[3] = 10 mg/kg orally, recall with mBSA 100 μg/ml for 96 h

CC(C)=CCC1=C(O)C(=O)c2ccccc2C1=O [LAP, 2-hydroxy-3-(3methyl-2-butenyl)-1,4-naphthoquinone]
effect on proliferation of murine CD4 T cells (murine CD4 T cells; [2]): inhibited the proliferation of murine CD4 T cells in a dose-dependent manner | suppression of proliferation compared with LEF (murine CD4 T cells; murine CD4 T cells, same equivalent concentrations): greater ability to suppress the proliferation | effect on proliferation of human CD4 T cells (human CD4 T cells; [2]): dose-dependent inhibition of human T-cell proliferation | suppression of proliferation compared with LEF (human CD4 T cells; human CD4 T cells, same equivalent concentrations): greater ability to suppress the proliferation | antiproliferative effect in the presence of uridine (human CD4 T cells; human CD4 T cells, uridine 30, 100, and 300 μM): uridine was able to reverse the antiproliferative effect of LAP in a dose-dependent manner | leucocyte infiltration into the knee joint ([1]; 10 mg/kg orally once a day over 9 days, 6 h after mBSA challenge): remarkable reduction in leucocyte infiltration | serum levels of anti-mBSA total IgG ([1]; 10 mg/kg orally once a day over 9 days, day 21): did not find differences | mBSA-specific production of IFN-γ by draining lymph node cells and splenocytes [1, 3]: significantly reduced | mBSA-specific production of IL-17 by draining lymph node cells and splenocytes [1, 3]: significantly reduced
